Assay [1] deals with A549 NRF2-ARE-Fluc stable cell line. In words: A549 Nrf2 assay: NRF2-ARE firefly luciferase reporter gene assay. The format is cell-based. The settings on record: Homo sapiens, read-out: Potency of inhibition, A549. The text has this:
A549, the parental cell line, is a non-small-cell lung cancer (NSCLC) cell line with loss-of-function (LOF) Keap1 activity, thus NRF2 transcription factor constitutively translocates into the nucleus to activate the expression of downstream target genes of NRF2. A firefly luciferase reporter (Fluc) construct driven by a minimal promoter of NRF2-specific anti-oxidant responsive element (ARE) is stably expressed in the A549 cells. Compounds that reduce the translocation of NRF2 into the nucleus or prevent the interaction between NRF2 and ARE will lead to a decrease in luciferase activity.
The final concentration of DMSO was maintained at 0.46%. Control compounds Budesonide and Staurosporine were both added at a concentration of 2 mM and Budesonide also was added as a 1:10 titration, starting at 200 μM, to achieve dose-response. After an 18-24 hour incubation at 37° C., 95% humidity, and 5% CO2, 1 μL of 5× CellTiter-Fluor non-lytic cell viability assay reagent (Promega, Madison, Wis.) was added into the each well of the plates. The plates were then incubated for 30 minutes at room temperature before they were read on a ViewLux plate imager (Perkin Elmer, Waltham, Mass.) using an excitation wavelength of 405 nm and an emission wavelength of 525 nm.
A cell based reporter assay approach was used for the identification of agents that could inhibit Nrf2 mediated gene expression (FIG. 1). A549-ARE-luciferase cells express the luciferase gene driven by a minimal promoter and an enhancer element containing an NRF2 binding site (Antioxidant Response Element, ARE).
(§1) Representative compounds were assayed to assess the potency of inhibition in an A549 NRF2-ARE-Fluc stable cell line (A549 Nrf2 assay), in an H838 NRF2-ARE-Fluc stable cell line (H838 Nrf2 assay), and in an H1437 NRF2-ARE-Fluc stable cell line (H1437 Nrf2 assay) (see Table 3).
Background: Reporter assays use an easily measured gene product as a stand-in for the process of interest.

Assay [2] has as its system H1437 NRF2-ARE-Fluc stable cell line. As to the kind of experiment: H1437 Nrf2 assay: NRF2-ARE firefly luciferase reporter gene assay. The format is cell-based. Particulars: read-out: Potency of inhibition, H1437.
Text: H1437 is another NSCLC cell line with LOF Keap1 activity and constitutive translocation of NRF2 into the nucleus. A firefly luciferase reporter construct driven by a minimal promoter of NRF2-specific ARE is stably expressed in the H1437 cells. This cell line was used as a confirmation assay to make sure hits identified from primary screening and that passed counterscreen assays worked in different cell types with a constitutively active NRF2 pathway (deficiency in Keap1).
This assay was very similar to the primary assay except that the cell line was changed. […] The final concentration of DMSO was maintained at 0.46%. Control compounds Budesonide and Staurosporine were both added at a concentration of 2 mM and Budesonide was also added as a 1:10 titration, starting at 200 μM, to achieve dose-response. After an 18-24 hour incubation at 37° C., 95% humidity, and 5% CO2, 1 μL of 5× CellTiter-Fluor non-lytic cell viability assay reagent (Promega, Madison Wis.) was added into the each well of the plates. The plates were then incubated for 30 minutes at room temperature before they were read on a ViewLux plate imager (Perkin Elmer, Waltham Mass.) using an excitation wavelength of 405 nm and an emission wavelength of 525 nm.
as §1

Setting [3] is: Homo sapiens, NCI-H1437, H1437 NRF2-ARE-Fluc stable cell line.

pIC50: −log10 of the molar value. Like-named read-outs stand apart in the source and are kept apart here. Some results are limits rather than exact numbers.

In the case of `CC1(C)CC2CC(C)(CN2S(=O)(=O)c2ccc(C(=O)Nc3cccc(S(=O)(=O)N4CCOCC4)c3)cc2)C1` (stereo not drawn) [compound 52], the pIC50 in assay [1] and in assay [2] (setting [3]) was above 5.30 in each case.
With `Cc1cc(C(=O)Nc2ncc(Cc3ccc(C(F)(F)F)cc3)s2)nn1CCN1CCOCC1` [Compound 194], the pIC50 in assay [1] and in assay [2] (setting [3]) was 4.60 to 5.30 each time.
For `Cc1cccc(Cc2cnc(NC(=O)c3ccn(-c4ccccc4)n3)s2)c1` [Compound 217], the pIC50 in assay [1] and in assay [2] (setting [3]) was 4.60 to 5.30 throughout.
As to `O=C(Nc1ccc(S(=O)(=O)N2CCN(Cc3ccccc3)CC2)cc1)c1cnccn1` [Compound 34], the pIC50 was above 5.30 in assay [1] and 4.60 to 5.30 in assay [2] (setting [3]).
The corresponding values for `O=C(Nc1ccc(S(=O)(=O)N2CCC(F)(F)CC2)cc1)c1ccc(CN2CCc3ccccc3C2)cc1` [compound 188] are above 5.30 and above 5.30.
Turning to `Cc1ccccc1S(=O)(=O)N1CCc2cc(-c3nc(NC(=O)Cc4cccc(F)c4)sc3C)ccc21` [Compound 124], the pIC50 in assay [1] and in assay [2] (H1437 NRF2-ARE-Fluc stable cell line) was above 5.30 each time.
As to `Cc1ccccc1C(=O)N1CCc2cc(-c3nc(NC(=O)CN4CCN(C(=O)OC(C)(C)C)CC4)sc3C)ccc21` [Compound 69, tert-butyl 4-(2-((5-methyl-4-(1-(2-methylbenzoyl)indolin-5-yl)thiazol-2-yl)amino)-2-oxoethyl)piperazine-1-carboxylate], the pIC50 in assay [1] and in assay [2] (setting [3]) was above 5.30 throughout.
For `O=C(Nc1ccc(S(=O)(=O)N2CCOCC2)cc1)c1ccc(CN2CCCCC2)cc1` [compound 179], the pIC50 in assay [1] was 4.60 to 5.30; in assay [2] (setting [3]), below 4.60.
The corresponding values for `O=C(Nc1ncc(Cc2ccc(C(F)(F)F)cc2)s1)c1c[nH]c(-c2ccccc2)n1` [Compound 118] are 4.60 to 5.30 and below 4.60.
For `COc1ccc(CC(=O)Nc2nc(-c3ccc4c(c3)CCN4C(=O)c3ccccc3C)c(C)s2)cn1` [Compound 112], in that order: above 5.30 and above 5.30.
For `Cc1ccccc1C(=O)n1ccc2cc(-c3nc(NC(=O)Cc4ccc5c(c4)OCO5)sc3C)ccc21` [Compound 30], in that order: 4.60 to 5.30 and 4.60 to 5.30.
For `Cc1ccccc1S(=O)(=O)N1CCc2cc(-c3nc(NC(=O)Cc4ccc5c(c4)OCO5)sc3C)ccc21` [Compound 24], the figures for the pIC50 in assay [1] and in assay [2] (setting [3]) were above 5.30 and 4.60 to 5.30, respectively.
The corresponding values for `Cc1ccccc1C(=O)N1CCc2cc(N3CCCC(NC(=O)Cc4ccccc4)C3)ccc21` (stereo not drawn) [Compound 97] are 4.60 to 5.30 and 4.60 to 5.30.
For `Cc1ccccc1C(=O)N1CCc2cc(-c3nc(NC(=O)Cc4ccc(OCCOCCOCCN)cc4)sc3C)ccc21` [Compound 239, 2-(4-(2-(2-(2-aminoethoxy)ethoxy)ethoxy)phenyl)-N-(5-methyl-4-(1-(2-methylbenzoyl)indolin-5-yl)thiazol-2-yl)acetamide], the pIC50 in assay [1] was below 4.60; in assay [2] (setting [3]) it was 4.60 to 5.30.
The corresponding values for `O=C(Nc1ncc(Cc2ccccc2F)s1)c1ccn(-c2ccccc2)n1` [Compound 215] are above 5.30 and above 5.30.
Consider `Cc1ccccc1C(=O)N1CCc2cc(N3CCCC(N)C3)ccc21` (stereo not drawn) [Compound 94, (5-(3-aminopiperidin-1-yl)indolin-1-yl)(o-tolyl)methanone], for which the pIC50 in assay [1] and in assay [2] (setting [3]) was below 4.60 throughout.
Consider `O=C(Nc1ncc(Cc2ccc(C(F)(F)F)cc2)s1)c1ccnc(-c2ccccc2)c1` [Compound 58], for which the pIC50 in assay [1] is below 4.60; in assay [2] (setting [3]), 4.60 to 5.30.
For `O=C(Nc1ncc(Cc2ccc(C(F)(F)F)cc2)s1)c1cn(-c2ccccc2)cn1` [Compound 164], in that order: above 5.30 and below 4.60.
For `Cc1cc(C(=O)Nc2ncc(Cc3ccc(C(F)(F)F)cc3)s2)nn1Cc1ccccn1` [Compound 193], in that order: above 5.30 and above 5.30.
The corresponding values for `CC1Cc2ccccc2CN1Cc1ccc(C(=O)Nc2ccc([S+](=O)([O-])N3CCOCC3)cc2)cc1` (stereo not drawn) [Compound 206] are above 5.30 and above 5.30.
On to `Cc1sc(NC(=O)Cc2ccc3c(c2)OCO3)nc1-c1ccc2c(c1)CCN2C(=O)c1ccccc1C(C)C` [Compound 138], for which the pIC50 was above 5.30 in assay [1] and below 4.60 in assay [2] (setting [3]).
The corresponding values for `Cc1ccccc1C(=O)N1CCc2cc(-c3nc(NC(=O)c4ccc5c(c4)OCO5)sc3C)ccc21` [Compound 13] are above 5.30 and 4.60 to 5.30.
For `O=C(O)c1ccc(CN2CCc3ccccc3C2)cc1` [Compound 90, 4-((3,4-dihydroisoquinolin-2(1H)-yl)methyl)benzoic acid], in that order: below 4.60 and below 4.60.
For `Cc1ccccc1C(=O)N1CCc2cc(-c3cccc(NC(=O)Cc4ccc5c(c4)OCO5)c3)ccc21` [Compound 31], the pIC50 in assay [1] was 4.60 to 5.30; in assay [2] (setting [3]), below 4.60.
Turning to `O=C(Nc1ccc(S(=O)(=O)N2CCCCC2)cc1)c1ccc(CN2CCc3ccccc3C2)cc1` [Compound 38], the pIC50 in assay [1] and in assay [2] (setting [3]) was above 5.30 in each case.
Turning to `Cc1ccccc1C(=O)N1CCc2cc(-c3nc(NC(=O)Cc4cccc(OCCOCCOCCNC(=O)CCCC[C@@H]5SC[C@@H]6NC(=O)N[C@@H]65)c4)sc3C)ccc21` [Compound 240], the pIC50 in assay [1] is 4.60 to 5.30; in assay [2] (setting [3]) it was above 5.30.
The corresponding values for `O=C(NC1CCCN(Cc2ccccc2)C1)c1ccc(-c2cccc([N+](=O)[O-])c2)o1` (stereo not drawn) [Compound 103] are below 4.60 and below 4.60.
For `Cc1ccccc1C(=O)n1ccc2cc(-c3cccc(NC(=O)Cc4ccccc4)n3)cnc21` [Compound 76], in that order: 4.60 to 5.30 and below 4.60.
For `Cc1sc(NC(=O)Cc2ccc3c(c2)OCO3)nc1-c1ccc2c(c1)CCN2` [Compound 17, 2-(Benzo[d][1,3]dioxol-5-yl)-N-(4-(indolin-5-yl)-5-methylthiazol-2-yl)acetamide], in that order: 4.60 to 5.30 and below 4.60.
For the compound `COc1ccc(CC(=O)Nc2nc(-c3ccc4c(c3)CCN4C(=O)c3cccnc3C)c(C)s2)cc1` [Compound 196], the pIC50 in assay [1] and in assay [2] (setting [3]) was above 5.30 in each case.
`O=C(Nc1ncc(Cc2ccc(C(F)(F)F)cc2)s1)c1cccc(-c2ccccc2)n1` [Compound 61]: the pIC50 is above 5.30 in assay [1] and below 4.60 in assay [2] (setting [3]).
The corresponding values for `Cc1sc(NC(=O)Cc2ccc3c(c2)OCO3)nc1-c1ccc2c(c1)CCN2C(=O)c1ccccc1C(F)(F)F` [Compound 121] are above 5.30 and below 4.60.
The corresponding values for `O=C(Cc1ccccc1)Nc1cccc(-c2ccc3[nH]c(-c4ccccc4)nc3c2)n1` [Compound 92] are 4.60 to 5.30 and below 4.60.
The corresponding values for `Cc1ccccc1C(=O)N1CCc2cc(-c3nc(NC(=O)CC4CCN(C)CC4)sc3C)ccc21` [Compound 75] are 4.60 to 5.30 and 4.60 to 5.30.
Regarding `COc1cccc(CC(=O)Nc2nc(-c3ccc4c(c3)CCN4C(=O)c3ccccc3C)c(C)s2)c1` [Compound 6], the pIC50 in assay [1] and in assay [2] (setting [3]) was above 5.30 in each case.
Regarding `Cc1ccccc1C(=O)N1CCc2cc(-c3nc(NC(=O)Cc4ccc(O)cc4)sc3C)ccc21` [Compound 235, 2-(4-hydroxyphenyl)-N-(5-methyl-4-(1-(2-methylbenzoyl)indolin-5-yl)thiazol-2-yl)acetamide], the pIC50 in assay [1] and in assay [2] (setting [3]) was 4.60 to 5.30 in each case.
Take `O=C(Nc1ncc(Cc2ccc(C(F)(F)F)cc2)s1)c1ccn(-c2cccnc2)n1` [Compound 175]: the pIC50 in assay [1] and in assay [2] (setting [3]) was 4.60 to 5.30 throughout.
With `O=C(Nc1ccc(CN2CCOCC2)cc1)c1ccc(CN2CCc3ccccc3C2)cc1` [compound 163], the pIC50 in assay [1] was above 5.30; in assay [2] (setting [3]), below 4.60.
The corresponding values for `Cc1sc(NC(=O)Cc2ccc3c(c2)OCO3)nc1-c1ccc2c(c1)CCN2C(=O)C1CCCCC1` [Compound 25] are 4.60 to 5.30 and above 5.30.

(Values after US20160046616A1, “NRF2 SMALL MOLECULE INHIBITORS FOR CANCER THERAPY” (THE JOHNS HOPKINS UNIVERSITY, priority 2013, published 2016).)
